# Reference: patent publication US4448730A, “Hydroxybenzohydroxamic acids, benzamides and esters and related compounds as ribonucleotide reductase inhibitors” (priority 1982, dated 1984)
# Where “and” joins values, the source holds several entries; their conditions need not be identical. Identical values can stand only once. Like-named read-outs stand apart in the source and are kept apart here.
# Legend:
# [1] = molecular target: T1, ribonucleotide reductase (Rattus norvegicus, UniProt Q4KLN6); assay: Inhibition of ribonucleotide reductase (conversion of CDP to dCDP), enzyme partially purified from Novikoff hepatoma; format: biochemical; details: for IC50: CDP to dCDP, 40 min at 30° C, pH 7.5, enzyme from Novikoff hepatoma, read-out: ID50 (inhibitory dose which inhibits ribonucleotide reductase by 50%); for Inhibitory Potency for ribonucleotide reductase: relative to hydroxyurea, given an arbitrary value of 1.0
# T1 construct: partially purified from Novikoff hepatoma; from tissue; host or cells: Novikoff hepatoma (rat tumour), partially purified enzyme
# T1 sequence (Q4KLN6 1-390): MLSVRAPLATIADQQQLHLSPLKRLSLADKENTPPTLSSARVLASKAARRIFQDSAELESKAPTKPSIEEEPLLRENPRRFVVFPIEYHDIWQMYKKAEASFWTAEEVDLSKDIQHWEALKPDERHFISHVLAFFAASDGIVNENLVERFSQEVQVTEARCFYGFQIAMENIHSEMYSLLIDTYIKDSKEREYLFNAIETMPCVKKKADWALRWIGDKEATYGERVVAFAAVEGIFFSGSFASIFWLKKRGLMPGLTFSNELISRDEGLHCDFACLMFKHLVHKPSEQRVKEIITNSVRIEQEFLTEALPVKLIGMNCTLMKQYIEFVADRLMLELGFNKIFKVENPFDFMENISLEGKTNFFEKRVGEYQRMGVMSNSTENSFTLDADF
# Source text: (§1) Table 2 gives ribonucleotide reductase data for certain compounds of formula I. In the table, column 1 gives the substitution pattern in the benzene ring, column 2, the R^1 group, column 3, the ID50 (inhibitory dose in micromolar concentration which inhibits ribonucleotide reductase by 50%), column 4, the average percent (± standard error) increase in the life span (ILS) of 8 treated mice inoculated with L1210 leukemia compared with 8 control mice also inoculated with L1210. The daily dose level of the drug which was administered for 8 days is indicated in column 5. Table 3 gives the relative potency of the compounds represented by formula I above as inhibitors of ribonucleotide reductase compared to hydroxyurea whose potency was given an arbitrary value of 1.0. In table 3, column 1 gives the name of the compound and column 2 the relative inhibitory potency of each of the compounds of column 1.
# In the above determination of ID50 's in Table 3, ribonucleotide reductase is partially purified from Novikoff hepatoma by a procedure similar to that set forth by Elford et al. J. Biol. Chem. 245, 5228 (1970). The activity of the enzyme was measured by a slightly modified assay procedure originally developed by Reichard et al. id, 236, 1150 […]. This procedure measures the conversion of CDP to dCDP. The assay mixture (0.34 ml.) contains 3 μCi of [^3 H] CDP (specific activity […]), 3.3 μmole ATP, 5.9 μmoles magnesium chloride, 8.8 μmoles Hepes buffer at pH=7.5, 15 μmoles dithiothreitol and enzyme protein between 0.4 and 1.3 mg. Incubation was provided for forty minutes at 30° C. Ion exchange chromatography employing Dowex 50 (H^+) resin is used to separate the product from the substrate. The inhibitors were dissolved in water and a mixture of water and up to 1 % ethanol or 2% dimethylsulfoxide, neither one of which inhibited the enzyme at these concentrations. Each inhibitor was tested at a minimum of three concentrations and the active compounds reassayed at least one additional time. ID50 's in μmoles were estimated from graphs summarizing results for each compound.
# [2] = system: L1210 leukemia; assay: L1210 leukemia in mice, increase in life span (Table 2); format: in vivo; details: Mus musculus, L1210, 192 h, read-out: ILS, average percent (± standard error) increase in life span
# Source text: As stated above, the compounds represented by formula I above have the ability to inhibit ribonucleotide reductase, an enzyme involved in the reductive conversion of ribonucleotides to deoxyribonucleotides. This enzymatic reaction is a rate controlling step in the biosynthetic pathway leading to DNA and cell replication. In general, the ribonucleotide reductase level is closely correlated with cellular replication.
# as §1
# [3] = system: L-1210 Leukemia; format: in vivo, mice; details: once or twice daily for 9-10 days
# Procedure: (§3) All compounds were administered once or twice daily for 9-10 days starting 24 hours after inoculation with the tumor.
# [4] = system: Lewis Lung; assay: Activity vs. Lewis Lung (Table 5); format: in vivo, mice; details: once or twice daily for 9-10 days
# Procedure: as §3
# [5] = system: CA-755 adenocarcinoma; assay: Activity vs. CA-755 adenocarcinoma (Table 7); format: in vivo, mice; details: once or twice daily for 9-10 days
# Procedure: as §3
# [6] = system: P388 Leukemia; assay: Activity vs. P388 Leukemia (Table 8); format: in vivo, mice; details: once or twice daily for 9-10 days
# Procedure: as §3
# [7] = system: CX-1 colon xenograft; assay: Activity against CX-1 colon xenograft; format: in vivo
# Procedure: In addition, the compound 3,4-dihydroxybenzenehydroxamic acid was active against CX-1 colon xenograft using the following protocol:
# 0% tumor inhibition at 800 mg/kg dose level every fourth day,
# 3,4,5-trihydroxybenzohydroxamic acid gave the following results against the same tumor using the same protocol.
# [8] = system: P-388 leukemia; assay: Prolongation of life of mice inoculated with P-388 leukemia, dosing every fifth day; format: in vivo; details: 50-400 mg/kg every fifth day
# [9] = system: CD8F mammary tumor; assay: Inhibition of growth of CD8F mammary tumor; format: in vivo
# Source text: (§2) The same two compounds were effective in inhibiting the growth of the following transplanted tumors--B16 melanoma, M-1 human breast xenograft, LX-1 human lung xenograft, CD8F mammary tumor and colon 38 tumor--as follows: […]
# [10] = system: colon 38 tumor; assay: Inhibition of growth of colon tumor C8 (colon 38); format: in vivo, mice
# Source text: as §2
# [11] = system: B16 melanoma; assay: B16 melanoma, increase in survival; format: in vivo, mice
# Source text: as §2
# [12] = system: M-1 human breast xenograft; assay: Inhibition of growth of M-1 human breast xenograft; format: in vivo, mice
# Source text: as §2
# [13] = system: L-1210 Leukemia; format: in vivo, mice
# Procedure: In a series of studies against L-1210 leukemia, in addition to those studies set forth in Table 2 and 4, 3,4-dihydroxybenzohydroxamic acid gave the following increases in survival times at the dose levels specified. Drug was administered daily for nine days.
# Similar data for 3,4,5-trihydroxybenzohydroxamic acid are as follows: […]
# [14] = system: L-5563 lymphoma; assay: Activity vs. L-5563 lymphoma (Table 6); details: once or twice daily for 9-10 days
# Procedure: as §3
# [15] = system: LX-1 human lung xenograft; assay: Inhibition of growth of LX-1 human lung xenograft; format: in vivo, mice
# Source text: as §2
# [16] = system: L-1210 Leukemia; format: in vivo, mice; remark: listed apart in the source
# Source text: The above data clearly show the enhanced anti-tumor activity of trihydroxybenzohydroxamic acid where the hydroxy groups are vicinal but no hydroxyl is ortho. Similar data are available for the vicinal dihydroxybenzohydroxamic acids with and without an ortho-hydroxy substituent in an L-1210 leukemic test in mice as follows: […]
# [17] = system: L-1210 Leukemia; assay: Direct side-by-side comparison with L-1210 leukemia; format: in vivo, mice
# Source text: In a direct side-by-side comparison with L-1210 leukemia, the following results were obtained.
# [18] = system: DNA synthesis in Ehrlich ascites tumor cells; details: Gale and Hynes 1968; in vitro; cited from earlier work
# [19] = system: RNA and protein synthesis in Ehrlich ascites tumor cells; details: Gale and Hynes 1968; cited from earlier work
structure (smiles),measurement,setting,value
"O=C(NO)c1cc(O)c(O)c(O)c1 [3,4,5-trihydroxybenzohydroxamic acid]",IC50,[1],10 µM
same,Inhibitory Potency for ribonucleotide reductase,[1],50
same,ILS at 400 mg/kg,[2]; 400 mg/kg daily for 8 days,53 ± 19%
same,% increase in survival time,[3]; 75 mg/kg,60%
same,% increase in survival time,"[3]; 100 mg/kg, listed as gallohydroxamic acid",58% and 55%
same,% increase in survival time,[3]; 120 mg/kg,54%
same,% tumor inhibition,[4]; 100 mg/kg,40%
same,% inhibition,[5]; 100 mg/kg,28%
same,% inhibition,[5]; 150 mg/kg,11%
same,% inhibition,[5]; 175 mg/kg,29%
same,% Prolongation,[6]; 200 mg/kg,62%
same,% Prolongation,[6]; 225 mg/kg,79%
same,tumor inhibition,[7]; 200 mg/kg every fourth day,17%
same,tumor inhibition,[7]; 400 mg/kg every fourth day,40%
same,tumor inhibition,[7]; 800 mg/kg every fourth day,44%
same,prolongation of life,[8],23-53%
same,inhibition,[9]; 300 mg/kg,0%
same,inhibition,[9]; 600 mg/kg,22%
same,inhibition,[10]; 50 mg/kg,20%
same,inhibition,[10]; 100 mg/kg,30%
same,inhibition,[10]; 200 mg/kg,32%
same,inhibition,[10]; 400 mg/kg,17%
same,inhibition,[10]; 800 mg/kg,60%
same,increase in survival,[11]; 100 mg/kg,14%
same,increase in survival,[11]; 200 mg/kg,18%
same,inhibition,[12]; 200 mg/kg,69%
same,inhibition,[12]; 400 mg/kg,21%
same,inhibition,[12]; 800 mg/kg,56%
same,inhibition,[12]; 1600 mg/kg,41%
same,% increase in survival,[13]; 50 mg/kg daily for nine days,27% and 29%
same,% increase in survival,[13]; 200 mg/kg daily for nine days,54% and 56%
same,% increase in survival,[13]; 400 mg/kg daily for nine days,0% and 4%
same,% increase in survival time,"[13]; dose 800, similar data (daily for nine days)",16%
same,% inhibition,[14]; 100 mg/kg,41%
"O=C(NO)c1ccc(O)c(O)c1 [3,4-dihydroxybenzohydroxamic acid]",IC50,[1],30 µM
same,Inhibitory Potency for ribonucleotide reductase,[1],17
same,ILS at 600 mg/kg,[2]; 600 mg/kg daily for 8 days,103 ± 15%
same,survivors,[3]; 200 mg/kg,4 survivors
same,% increase in survival time,[3]; 225 mg/kg,65%
same,% tumor inhibition,[4]; 200 mg/kg,14%
same,% tumor inhibition,[4]; 400 mg/kg,31-58%
same,% inhibition,[5]; 100 mg/kg,16%
same,% inhibition,[5]; 200 mg/kg,25% and 36%
same,% inhibition,[5]; 300 mg/kg,52%
same,toxic (in column % inhibition),[5]; 300 mg/kg,toxic
same,% Prolongation,[6]; 200 mg/kg,51%
same,% Prolongation,[6]; 225 mg/kg,89%
same,tumor inhibition,[7]; 200 mg/kg every fourth day,48%
same,tumor inhibition,[7]; 400 mg/kg every fourth day,14%
same,tumor inhibition,[7]; 800 mg/kg every fourth day,0%
same,activity against CX-1 colon xenograft (in words),[7]; every fourth day,active
same,inhibition,[9]; 300 mg/kg,52%
same,inhibition,[9]; 600 mg/kg,11%
same,inhibition,[10]; 50 mg/kg,12%
same,inhibition,[10]; 100 mg/kg,8%
same,inhibition,[10]; 200 mg/kg,15%
same,inhibition,[10]; 400 mg/kg,52%
same,increase in survival,[11]; 200 mg/kg,24-25%
same,increase in survival,[11]; 400 mg/kg,41%
same,inhibition,[15]; 200 mg/kg,0%
same,inhibition,[15]; 400 mg/kg,26%
same,inhibition,[15]; 800 mg/kg,27%
same,% increase in survival,[13]; 25 mg/kg daily for nine days,15%
same,% increase in survival,[13]; 50 mg/kg daily for nine days,25%
same,% increase in survival,[13]; 100 mg/kg daily for nine days,37%
same,% increase in survival,[13]; 164 mg/kg daily for nine days,21%
same,% increase in survival,[13]; 196 mg/kg daily for nine days,52%
same,% increase in survival,[13]; 200 mg/kg daily for nine days,67%
same,% increase in survival,[13]; 235 mg/kg daily for nine days,39%
same,% increase in survival,[13]; 245 mg/kg daily for nine days,45% and 68%
same,% increase in survival,[13]; 307 mg/kg daily for nine days,67% and 76%
same,% increase in survival,[13]; 336 mg/kg daily for nine days,55%
same,% increase in survival,[13]; 384 mg/kg daily for nine days,62% and 85%
same,% increase in survival,[13]; 400 mg/kg daily for nine days,67%
same,% increase in survival,[13]; 480 mg/kg daily for nine days,106% and 87% and 67%
same,% increase in survival,[13]; 600 mg/kg daily for nine days,54% and 64%
same,% increase in survival time,[16]; 100 mg/kg,25%
same,% increase in survival time,[16]; 300 mg/kg,56%
same,% increase in survival time,[16]; 453 mg/kg,125%
same,% increase in survival time,[16]; 500 mg/kg,84%
same,% increase in survival time,[16]; 543 mg/kg,77%
same,% increase in survival time,[16]; 600 mg/kg,94% and 103%
same,% increase in survival time,[16]; 643 mg/kg,65%
same,% increase in survival time,[17]; 250 mg/kg,32%
same,% increase in survival time,[17]; 500 mg/kg,70%
same,% inhibition,[14]; 200 mg/kg,24%
Nc1cccc(C(=O)NO)c1 [3-Aminobenzohydroxamic acid],inhibition of / selectivity against DNA synthesis (in words),[18],completely inhibiting DNA synthesis
same,depression of RNA and protein synthesis,[19],50%
